Measured values reported in ChEMBL document CHEMBL5579846, “Synthesis of thiazolidine-2,4-dione tethered 1,2,3-triazoles as α-amylase inhibitors: In vitro approach coupled with QSAR, molecular docking, molecular dynamics and ADMET studies” (Eur J Med Chem, 2024).

Target: T1, Alpha amylase (Homo sapiens, UniProt P0DUB6)
T1 sequence (P0DUB6 whole entry): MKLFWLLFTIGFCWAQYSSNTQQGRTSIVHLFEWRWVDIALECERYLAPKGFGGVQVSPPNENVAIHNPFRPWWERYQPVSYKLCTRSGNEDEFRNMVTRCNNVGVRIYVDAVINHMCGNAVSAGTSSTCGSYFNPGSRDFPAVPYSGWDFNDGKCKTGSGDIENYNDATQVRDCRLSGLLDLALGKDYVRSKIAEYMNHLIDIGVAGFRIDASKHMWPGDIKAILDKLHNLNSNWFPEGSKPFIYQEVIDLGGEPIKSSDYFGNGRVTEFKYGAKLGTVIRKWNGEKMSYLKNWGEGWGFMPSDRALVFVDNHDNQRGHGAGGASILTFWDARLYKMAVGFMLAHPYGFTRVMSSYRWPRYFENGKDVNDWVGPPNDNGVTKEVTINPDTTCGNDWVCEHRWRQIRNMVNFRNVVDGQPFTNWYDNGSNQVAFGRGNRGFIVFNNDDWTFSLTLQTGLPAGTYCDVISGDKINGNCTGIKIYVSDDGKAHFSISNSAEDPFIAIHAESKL
Experiment: Inhibition of alpha-amylase (unknown origin) using 1% starch as substrate preincubated for 30 mins followed by substrate addition and measured after 30 mins by colorimetric analysis
Assay type: protein assay

SMILES	IC50 [µmol/mL]	pIC50
Cc1ccc(-n2cc(CN3C(=O)S/C(=C\N(C)C)C3=O)nn2)c(C)c1	0.048	7.318
COc1cccc(-n2cc(CN3C(=O)S/C(=C\N(C)C)C3=O)nn2)c1	0.069	7.164
CCc1ccccc1-n1cc(CN2C(=O)S/C(=C\N(C)C)C2=O)nn1	0.049	7.307
COc1ccc(-n2cc(CN3C(=O)S/C(=C\N(C)C)C3=O)nn2)cc1	0.053	7.276
CCc1ccc(-n2cc(CN3C(=O)S/C(=C\N(C)C)C3=O)nn2)cc1	0.068	7.169
Cc1cccc(-n2cc(CN3C(=O)S/C(=C\N(C)C)C3=O)nn2)c1	0.061	7.215
CN(C)/C=C1\SC(=O)N(Cc2cn(-c3cccc(Cl)c3Cl)nn2)C1=O	0.06	7.222
C#CCN1C(=O)S/C(=C\N(C)C)C1=O	0.139	6.859
CN(C)/C=C1\SC(=O)N(Cc2cn(CC(=O)c3ccc(Br)cc3)nn2)C1=O	0.078	7.108
CN(C)/C=C1\SC(=O)N(Cc2cn(-c3ccc(F)cc3)nn2)C1=O	0.093	7.031
CCCCn1cc(CN2C(=O)S/C(=C\N(C)C)C2=O)nn1	0.058	7.24
CN(C)/C=C1\SC(=O)N(Cc2cn(-c3ccnc4cc(Cl)ccc34)nn2)C1=O	0.04	7.399
CN(C)/C=C1\SC(=O)N(Cc2cn(Cc3ccccc3)nn2)C1=O	0.08	7.095
CN(C)/C=C1\SC(=O)N(Cc2cn(-c3cccc(Cl)c3)nn2)C1=O	0.066	7.182
COc1ccccc1-n1cc(CN2C(=O)S/C(=C\N(C)C)C2=O)nn1	0.065	7.185
CN(C)/C=C1\SC(=O)N(Cc2cn(-c3ccccc3Cl)nn2)C1=O	0.091	7.039
CN(C)/C=C1\SC(=O)N(Cc2cn(-c3cccc(C(F)(F)F)c3)nn2)C1=O	0.055	7.258
Cc1ccc(C)c(-n2cc(CN3C(=O)S/C(=C\N(C)C)C3=O)nn2)c1	0.093	7.032
CN(C)/C=C1\SC(=O)N(Cc2cn(-c3ccc([N+](=O)[O-])cc3)nn2)C1=O	0.059	7.227
CN(C)/C=C1\SC(=O)N(Cc2cn(-c3ccccc3)nn2)C1=O	0.099	7.003
CN(C)/C=C1\SC(=O)N(Cc2cn(-c3ccccc3C(F)(F)F)nn2)C1=O	0.048	7.319
CN(C)/C=C1\SC(=O)N(Cc2cn(Cc3ccc(Cl)cc3Cl)nn2)C1=O	0.045	7.349
CN(C)/C=C1\SC(=O)N(Cc2cn(-c3ccc(Cl)cc3)nn2)C1=O	0.098	7.01
Cc1cc(C)cc(-n2cc(CN3C(=O)S/C(=C\N(C)C)C3=O)nn2)c1	0.066	7.182
CN(C)/C=C1\SC(=O)N(Cc2cn(-c3ccc(C(F)(F)F)cc3)nn2)C1=O	0.084	7.077
CC(C)c1ccc(-n2cc(CN3C(=O)S/C(=C\N(C)C)C3=O)nn2)cc1	0.054	7.268
